Data taken from PubChem BioAssay (NCI).
Values joined by “and” are separate entries in the source; they are usually repeats but may differ in a detail not shown here. Equal values may be shown once.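 Each compound was tested at five concentrations against cells in 96-well plates for 48 hours. Here, GI50 denotes the concentration required for 50% inhibition of growth. The concentration for full growth arrest is given as TGI.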

What was measured:
Experiment in all cases: inhibition of tumour cell growth, NCI panel, 48 h
BT-549 breast = tested on: BT-549 breast
DU-145 prostate = tested on: DU-145 prostate
MDA-MB-231 breast = tested on: MDA-MB-231 breast
MDA-MB-435 = tested on: MDA-MB-435
SNB-78 CNS = tested on: SNB-78 CNS

Structure (SMILES)	GI50 (BT-549 breast)	TGI (BT-549 breast)	GI50 (DU-145 prostate)	TGI (DU-145 prostate)	GI50 (MDA-MB-231 breast)	TGI (MDA-MB-231 breast)	GI50 (MDA-MB-435)	TGI (MDA-MB-435)	TGI (SNB-78 CNS)
COc1cc(-c2nn(-c3ccc(NC(=O)c4ccc(Cl)c(C(F)(F)F)c4)cc3)cc2-c2ccncc2)ccc1Cl	3.08 µM	32.5 µM	4.59 µM	> 100 µM	1.6 µM	6.09 µM	2.41 µM	> 100 µM	
COc1ccc2c(C3=C(c4cn(C)c5ccccc45)C(=O)NC3=O)cn(C)c2c1		> 25 µM	0.137 µM	> 25 µM	0.542 µM	> 25 µM			
COc1ccc2c3c1C(=O)CCCC3CO2 (stereo unspecified)									> 100 µM
NC(=O)c1sc(-n2cnc3ccccc32)cc1OCc1ccccc1Br	9.68 µM	> 25 µM	2.02 µM	7.19 µM	4.96 µM	> 25 µM	0.795 µM	5.47 µM	
N#CC(c1ccc(Cl)cc1)c1cccc(C(C#N)c2ccc(Cl)cc2)n1 (stereo unspecified)									> 100 µM
CCCCCN(CCCCC)CCCNc1c2c(nc3ccc(Cl)cc13)CCCC2	11.2 µM	23.4 µM	3.71 µM	13.4 µM	2.76 µM	13.1 µM	2.23 µM	6.56 µM	
CO[C@H](C(=O)[C@@H](O)[C@@H](C)O)[C@@H]1Cc2cc3cc(O[C@H]4C[C@@H](O[C@H]5C[C@@H](O)[C@H](O)C(C)O5)[C@H](O)C(C)O4)c(C)c(O)c3c(O)c2C(=O)[C@H]1O[C@H]1C[C@@H](O[C@H]2C[C@@H](O[C@H]3C[C@](C)(O)C(=O)C(C)O3)[C@@H](O)C(C)O2)[C@H](O)C(C)O1 (stereo partly specified)	0.0356 µM	0.157 µM	0.127 µM	> 33.2 µM	0.145 µM	9.97 µM	0.0646 µM	0.252 µM	
O=C1/C(=C/c2ccccc2)CN(C(=O)C(Cl)(Cl)Cl)C/C1=C\c1ccccc1									7.54 µM
COC1=CC(c2ccc[nH]2)=N/C1=C\c1[nH]c(C)c(C(=O)OC(C)C)c1C	0.061 µM	2.68 µM	0.0609 µM	6.47 µM	0.0252 µM	0.274 µM	0.0349 µM	0.386 µM	
Cn1c2ccccc2c2c(Nc3ccccc3)c3ccccc3nc21	21.3 µM	47.8 µM	9.35 µM	50.4 µM	2.75 µM	22.9 µM	2.7 µM	6.85 µM	
Cc1nc2ccccc2c(N)c1-c1cc(C)c2c(C)nc3ccccc3c2n1	1.05 µM	2.46 µM	0.479 µM	1.67 µM	0.298 µM	0.904 µM	1.51 µM	2.86 µM	
COC1CCC(N2C(=O)CNc3ncc(-c4ccc(C(C)(C)O)nc4)nc32)CC1 (stereo unspecified)	0.329 µM and 0.0572 µM	3.6 µM and 0.991 µM	1.42 µM and 0.459 µM	> 38 µM	0.52 µM and 0.283 µM	4.8 µM and 25.3 µM	0.668 µM and 0.167 µM	3.28 µM	
NC(=O)c1cccc2cn(-c3ccc([C@@H]4CCCNC4)cc3)nc12	18.8 µM	40.9 µM	8.97 µM	21.9 µM	11.7 µM	31.2 µM	12.7 µM	26.5 µM	
Cc1ccc(NC2=C(Cl)C(=O)N(Cc3ccccc3)C2=O)cc1O			60.1 µM	> 100 µM	21 µM	61.5 µM	29 µM	> 100 µM	
